Measurements as given in PMC4807281 (The Journal of Biological Chemistry, 2016).

What was measured:
DnaK [1] = biological target: T1, DnaK (Escherichia coli, UniProt P0A6Y8); assay: Peptide binding assay (fluorescence polarization), control/deglutathionylated DnaK; design: species or system E. coli; conditions: ADP state; FP
T1 construct: His6-Smt3 (N, cleaved yes); made in house; host or cells: E. coli BL21(DE3)
Procedure: FP values are expressed in millipolarization units. All statistical analyses were performed with Origin 8 software.
FIGURE 6.

Hsp72 = system: Hsp72; design: method as in PMID 15540944; conditions: modification at Cys-267; ref [62]; cited from earlier work
DnaK [2] = biological target: T1, DnaK; design: species or system E. coli; conditions: 0.5 mM ATP or ADP premixed 30 min with DnaK T199A; GSH and diamide
Procedure: To deglutathionylate the protein, 10 mM DTT was added to the reaction mixture. GSH, diamide, and/or DTT was removed by dialysis.
(§1) Cooled protein was mixed with the dye and incubated in the dark at room temperature for at least 30 min. SDS-PAGE was performed to separate protein and surplus dye. Fluorescence of Alexa Fluor 350 dye was observed using excitation at 254 nm with a UV lamp.
(§2) FIGURE 3. […] Unmodified cysteine residues for untreated control, glutathionylated, and deglutathionylated samples were labeled with fluorescent dye.

DnaK [3] = biological target: T1, DnaK; design: species or system E. coli; conditions: 1 mM ADP/ATP/NRLLLTG peptide, 1 h room temperature before DTNB; mean of three
Procedure: A standard curve was obtained using 0–100 μM free cysteine. […] The number of active cysteine residues can be calculated by dividing the concentration of free thiols in the protein by the concentration of protein.
FIGURE 1. […] The N-terminal NBD and its subdomains IA, IB, IIA, and IIB and the C-terminal SBD are indicated. […] The number of free thiols was calculated from the absorbance at 412 nm using a standard curve.

glutathionylated DnaK = biological target: T2, glutathionylated DnaK (Escherichia coli, UniProt P0A6Y8); assay: Deglutathionylation of glutathionylated DnaK by Grx3/GSH; design: species or system E. coli; conditions: 10 μM glutathionylated DnaK, 30 min, 37 °C, […] Grx3 with 20 μM GSH
T2 construct: His6-Smt3 (N, cleaved yes); made in house; host or cells: E. coli BL21(DE3)
T2 sequence (P0A6Y8 2-638): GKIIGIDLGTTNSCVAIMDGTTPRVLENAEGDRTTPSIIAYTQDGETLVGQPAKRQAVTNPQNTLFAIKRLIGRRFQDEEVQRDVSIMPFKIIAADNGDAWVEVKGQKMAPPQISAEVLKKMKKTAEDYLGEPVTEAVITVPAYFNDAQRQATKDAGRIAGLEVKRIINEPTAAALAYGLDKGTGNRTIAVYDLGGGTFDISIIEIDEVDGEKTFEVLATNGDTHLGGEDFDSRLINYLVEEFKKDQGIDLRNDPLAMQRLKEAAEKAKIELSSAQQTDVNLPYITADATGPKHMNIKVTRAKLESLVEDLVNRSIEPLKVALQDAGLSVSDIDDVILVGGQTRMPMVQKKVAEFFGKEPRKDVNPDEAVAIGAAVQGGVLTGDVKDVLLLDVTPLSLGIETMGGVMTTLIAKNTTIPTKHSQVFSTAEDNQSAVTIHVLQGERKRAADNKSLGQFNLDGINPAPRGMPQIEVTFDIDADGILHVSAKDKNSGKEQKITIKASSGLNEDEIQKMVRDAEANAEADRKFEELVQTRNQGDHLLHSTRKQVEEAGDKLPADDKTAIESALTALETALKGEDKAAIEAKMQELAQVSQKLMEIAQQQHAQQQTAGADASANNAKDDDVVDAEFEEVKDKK
Procedure: […] GSH, diamide, and/or DTT was removed by dialysis.
as §1, §2

Ssa1 = system: Ssa1; design: method as in PMID 8939938, PMID 9753476, PMID 10462452; conditions: absence of nucleotide; ref [56], [60], [61]; cited from earlier work
[4] = system: heat-induced luciferase aggregation; design: method as in PMID 15109915; conditions: ref [68]; cited from earlier work

T1 sequence (P0A6Y8 2-638): as above

Compound: CC(C)C[C@H](NC(=O)[C@H](C)NC(=S)Nc1ccc2c(c1)C(=O)OC21c2ccc(O)cc2Oc2cc(O)ccc21)C(=O)N[C@@H](CC(C)C)C(=O)N[C@@H](CC(C)C)C(=O)N[C@@H](CO)C(=O)N[C@@H](C)C(=O)N1CCC[C@H]1C(=O)N[C@@H](CCCNC(=N)N)C(=O)N[C@@H](CCCNC(=N)N)C(=O)O
- effect of ADP binding to DnaK on binding affinity of peptide (DnaK [1]): did not obviously alter the binding affinity of peptide

Compound: CCCCCC(O)C=CC=O (stereo not drawn) [4-Hydroxy-2-nonenal]
- effect on protein refoldase activity of Hsp72 (Hsp72): inhibits its protein refoldase activity

Compound: Nc1ncnc2c1ncn2[C@@H]1O[C@H](COP(=O)(O)OP(=O)(O)O)[C@@H](O)[C@H]1O [ADP]
- effect on glutathionylation of DnaK (DnaK [2]): no glutathionylation of DnaK occurred
- effect on cysteine reactivity of DnaK (DnaK [3]): inhibited cysteine reactivity of DnaK to different degrees

Compound: Nc1ncnc2c1ncn2[C@@H]1O[C@H](COP(=O)(O)OP(=O)(O)OP(=O)(O)O)[C@@H](O)[C@H]1O [ATP]
- effect on glutathionylation of DnaK (DnaK [2]): no glutathionylation of DnaK occurred
- effect on cysteine reactivity of DnaK (DnaK [3]): inhibited cysteine reactivity of DnaK to different degrees

Compound: N[C@@H](CCC(=O)N[C@@H](CS)C(=O)NCC(=O)O)C(=O)O [GSH]
- deglutathionylation of DnaK (glutathionylated DnaK): worked synergistically to cause deglutathionylation of DnaK

Compound: CCN1C(=O)C=CC1=O [N-ethylmaleimide]
- effect of modification on Ssa1 (Ssa1): reduces transmembrane transport as well as the ATPase and luciferase refolding activities of Ssa1

Compound: Hsc70: Hsp70 family member whose glutathionylation is cited
- effect of glutathionylation of Hsc70 [4]: enhance inhibition of heat-induced luciferase aggregation
